Reference: article PMC12326976 (Antimicrobial Agents and Chemotherapy, 2025)
Peptide text beside a SMILES is read from it.

How the values were obtained:
H1N1 virus [1] = experiment: Plaque reduction assay, H1N1 in MDCK cells; assay type: cell-based, influenza A/Hong Kong/415742/2009 (H1N1); conditions: H30 in 20% PBS compared to PBS, plaque assay, Fig. S1
Protocol: The antiviral activity of peptides was measured by plaque reduction assay. Briefly, peptides were dissolved in PBS or 20% PBS. Peptides (0.2-25.0 µg mL^−1) were premixed with H1N1 virus at room temperature. After 30 min of incubation, the peptide-virus mixture was transferred to MDCK cells for infection at 37°C. At 1 hpi, infectious media were removed, and then 1% low melting agar was added to cells. Cells were fixed using 4% formalin at 2–3 dpi. […] (0.1%) was added to cells for cell staining to count viral plaques.

rhinovirus A1 = assay type: cell-based
H1N1 virus [2] = assay type: cell-based, influenza H1N1 virus

Structure (SMILES) | antiviral activity against H1N1 in low salt (H1N1 virus [1]) | antiviral activity against rhinovirus A1 in low salt (rhinovirus A1) | H1N1 viral release, supernatant virus at 8 hpi (H1N1 virus [2])
CC[C@H](C)[C@H](NC(=O)[C@H](C)NC(=O)CN)C(=O)N[C@@H](CS)C(=O)N[C@@H](Cc1c[nH]cn1)C(=O)N1CCC[C@H]1C(=O)N[C@H](C(=O)N[C@@H](Cc1ccccc1)C(=O)N[C@@H](CS)C(=O)N1CCC[C@H]1C(=O)N[C@@H](CCCNC(=N)N)C(=O)N[C@@H](CCCNC(=N)N)C(=O)N[C@@H](Cc1ccc(O)cc1)C(=O)N[C@@H](CCCCN)C(=O)N[C@@H](CCC(N)=O)C(=O)N[C@H](C(=O)NCC(=O)N[C@H](C(=O)N[C@@H](CS)C(=O)NCC(=O)N[C@@H](CC(C)C)C(=O)N1CCC[C@H]1C(=O)NCC(=O)N[C@H](C(=O)N[C@@H](CCCCN)C(=O)N[C@@H](CS)C(=O)N[C@@H](CS)C(=O)N[C@@H](CCCCN)C(=O)N[C@@H](CCCCN)C(=O)N1CCC[C@H]1C(=O)O)[C@@H](C)O)[C@@H](C)O)[C@@H](C)CC)C(C)C [H30] (H-GAICHPVFCPRRYKQIGTCGLPGTKCCKKP-OH; N-terminus and C-terminus assumed) | could show antiviral activity in the low salt condition of 20% phosphate-buffered saline | could show more effective antiviral activity in low salt conditions | –
CC(=O)N[C@H]1[C@H]([C@H](O)[C@H](O)CO)OC(C(=O)O)=C[C@@H]1N=C(N)N [zanamivir, reference compound] | – | – | significantly inhibited H1N1 viral release from cells
